Experimental data from patent publication US6399773B1, “Compounds derived from an amine nucleus that are inhibitors of IMPDH enzyme” (Bristol-Myers Squibb Co., priority 1998, dated 2002).

COc1cc(Nc2cccc(-c3ccccc3)c2)ccc1-c1cnco1 [Example 29, N-[3-Methoxy-4-(5-oxazolyl)phenyl][1,1′-biphenyl]-3-amine]
melting point: 171 to 173 °C

COc1cc(Nc2ncc(-c3ccccc3)o2)ccc1-c1cnco1 [Example 34, N-[3-Methoxy-4-(5-oxazolyl)phenyl]-5-phenyl-2-oxazolamine]
melting point: 212 to 215 °C

COc1cc(Nc2ncc(-c3ccccc3N(C)C(=O)CN3CCOCC3)o2)ccc1-c1cnco1 [Example 79, N-[2-[2-[[3-Methoxy-4-(5-oxazolyl)phenyl]amino]-5-oxazolyl]phenyl]-N-methyl-4-morpholineacetamide]
melting point: 179 to 181 °C

COc1cc(Nc2cc(-c3ccccc3)on2)ccc1-c1cnco1 [Example 31, N-[3-Methoxy-4-(5-oxazolyl)phenyl]-5-phenyl-3-isoxazolamine]
melting point: 173 to 175 °C

COc1cc(Nc2ncc(-c3ccccc3C(=O)O)o2)ccc1-c1cnco1 [Example 80, 2-[2-[[3-Methoxy-4-(5-oxazolyl)phenyl]amino]-5-oxazolyl]benzoic acid]
melting point: 271 to 274 °C

COc1cc(Nc2nsc(-c3ccccc3)n2)ccc1-c1cnco1 [Example 30, N-[3-Methoxy-4-(5-oxazolyl)phenyl]-5-phenyl-1,2,4-thiadiazol-3-amine]
melting point: 260 to 261 °C
